Measured values taken from the supplement of paper PMC6004109.

Legend:
Conditions in all cases: temperature: 37 °C
[1] = tested on: Candida glabrata ATCC 2001 (YPD); assay: FICI minimum (fractional inhibitory concentration index, Loewe) (dimensionless); higher = less synergy / more antagonism
Experimental: (§1)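 CLSI M27-A3 checkerboard broth microdilution of an immunomodulatory drug (or amoxicillin) combined with an antifungal against S. cerevisiae and C. glabrata isolates. Growth was read as OD600 after incubation at 37 °C (48 h for the reported MICs). Reported quantities are the FICI (Loewe: MIC50 for azoles and immunomodulators, MIC90 for AMB; ≤0.5 synergy, ≥4 antagonism), as minimum and maximum over the surface, and the Bliss-independence sum of statistically significant ΔE (positive = synergy). Clinical isolates were tested in RPMI; C. glabrata ATCC 2001 and its pdr1Δ mutant were tested in YPD.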

[2] = tested on: Candida glabrata ATCC 2001 (YPD); assay: Bliss independence sum of statistically significant ΔE (measured minus predicted growth inhibition) over checkerboard surface (fraction (sum of ΔE; 1 = 100%)); higher = more synergy
[3] = tested on: Candida glabrata ATCC 2001 (YPD); assay: FICI maximum (fractional inhibitory concentration index, Loewe) (dimensionless); higher = less synergy / more antagonism
Experimental: as §1

[4] = tested on: Candida glabrata ZIM 2344 (RPMI); assay: FICI minimum (fractional inhibitory concentration index, Loewe) (dimensionless); higher = less synergy / more antagonism
Experimental: as §1

[5] = tested on: Candida glabrata ZIM 2385 (RPMI); assay: as above
Experimental: as §1

[6] = tested on: Candida glabrata ZIM 2365 (RPMI); assay: as above
Experimental: as §1

[7] = tested on: Candida glabrata ZIM 2369 (RPMI); assay: as above
Experimental: as §1

[8] = tested on: Candida glabrata ZIM 2382 (RPMI); assay: as above
Experimental: as §1

[9] = tested on: Saccharomyces cerevisiae ZIM 2269 (RPMI); assay: as above
Experimental: as §1

[10] = tested on: Saccharomyces cerevisiae ZIM 2255 (RPMI); assay: as above
Experimental: as §1

[11] = tested on: Saccharomyces cerevisiae ZIM 2247 (RPMI); assay: as above
Experimental: as §1

[12] = tested on: Saccharomyces cerevisiae ZIM 2566 (RPMI); assay: as above
Experimental: as §1

[13] = tested on: Saccharomyces cerevisiae ZIM 2558 (RPMI); assay: as above
Experimental: as §1

[14] = tested on: Candida glabrata ZIM 2389 (RPMI); assay: as above
Experimental: as §1

[15] = tested on: Candida glabrata ZIM 2344 (RPMI); assay: Bliss independence sum of statistically significant ΔE (measured minus predicted growth inhibition) over checkerboard surface (fraction (sum of ΔE; 1 = 100%)); higher = more synergy
[16] = tested on: Candida glabrata ZIM 2385 (RPMI); assay: as above
[17] = tested on: Candida glabrata ZIM 2365 (RPMI); assay: as above
[18] = tested on: Candida glabrata ZIM 2369 (RPMI); assay: as above
[19] = tested on: Candida glabrata ZIM 2382 (RPMI); assay: as above
[20] = tested on: Saccharomyces cerevisiae ZIM 2269 (RPMI); assay: as above
[21] = tested on: Saccharomyces cerevisiae ZIM 2255 (RPMI); assay: as above
[22] = tested on: Saccharomyces cerevisiae ZIM 2247 (RPMI); assay: as above
[23] = tested on: Saccharomyces cerevisiae ZIM 2566 (RPMI); assay: as above
[24] = tested on: Saccharomyces cerevisiae ZIM 2558 (RPMI); assay: as above
[25] = tested on: Candida glabrata ZIM 2389 (RPMI); assay: as above
[26] = tested on: Candida glabrata ZIM 2344 (RPMI); assay: FICI maximum (fractional inhibitory concentration index, Loewe) (dimensionless); higher = less synergy / more antagonism
Experimental: as §1

[27] = tested on: Candida glabrata ZIM 2385 (RPMI); assay: as above
Experimental: as §1

[28] = tested on: Candida glabrata ZIM 2365 (RPMI); assay: as above
Experimental: as §1

[29] = tested on: Candida glabrata ZIM 2369 (RPMI); assay: as above
Experimental: as §1

[30] = tested on: Candida glabrata ZIM 2382 (RPMI); assay: as above
Experimental: as §1

[31] = tested on: Saccharomyces cerevisiae ZIM 2269 (RPMI); assay: as above
Experimental: as §1

[32] = tested on: Saccharomyces cerevisiae ZIM 2255 (RPMI); assay: as above
Experimental: as §1

[33] = tested on: Saccharomyces cerevisiae ZIM 2247 (RPMI); assay: as above
Experimental: as §1

[34] = tested on: Saccharomyces cerevisiae ZIM 2566 (RPMI); assay: as above
Experimental: as §1

[35] = tested on: Saccharomyces cerevisiae ZIM 2558 (RPMI); assay: as above
Experimental: as §1

[36] = tested on: Candida glabrata ZIM 2389 (RPMI); assay: as above
Experimental: as §1

[37] = tested on: Saccharomyces cerevisiae ZIM 2260 (RPMI); assay: FICI minimum (fractional inhibitory concentration index, Loewe) (dimensionless); higher = less synergy / more antagonism
Experimental: as §1

[38] = tested on: Saccharomyces cerevisiae ZIM 2260 (RPMI); assay: Bliss independence sum of statistically significant ΔE (measured minus predicted growth inhibition) over checkerboard surface (fraction (sum of ΔE; 1 = 100%)); higher = more synergy
[39] = tested on: Saccharomyces cerevisiae ZIM 2260 (RPMI); assay: FICI maximum (fractional inhibitory concentration index, Loewe) (dimensionless); higher = less synergy / more antagonism
Experimental: as §1

SMILES | FICI minimum [1] | Bliss independence sum [2] | FICI maximum [3] | FICI minimum [4] | FICI minimum [5] | FICI minimum [6] | FICI minimum [7] | FICI minimum [8] | FICI minimum [9] | FICI minimum [10] | FICI minimum [11] | FICI minimum [12] | FICI minimum [13] | FICI minimum [14] | Bliss independence sum [15] | Bliss independence sum [16] | Bliss independence sum [17] | Bliss independence sum [18] | Bliss independence sum [19] | Bliss independence sum [20] | Bliss independence sum [21] | Bliss independence sum [22] | Bliss independence sum [23] | Bliss independence sum [24] | Bliss independence sum [25] | FICI maximum [26] | FICI maximum [27] | FICI maximum [28] | FICI maximum [29] | FICI maximum [30] | FICI maximum [31] | FICI maximum [32] | FICI maximum [33] | FICI maximum [34] | FICI maximum [35] | FICI maximum [36] | FICI minimum [37] | Bliss independence sum [38] | FICI maximum [39]
COc1c(C)c2c(c(O)c1C/C=C(\C)CCC(=O)O)C(=O)OC2 [mycophenolic acid] + C[C@@H](c1ncncc1F)[C@](O)(Cn1cncn1)c1ccc(F)cc1F [voriconazole] | 1.06 | -2.31 | 2.5 |  |  |  |  |  |  |  |  |  |  |  |  |  |  |  |  |  |  |  |  |  |  |  |  |  |  |  |  |  |  |  |  |  |  |  | 
CC1(C)S[C@@H]2[C@H](NC(=O)[C@H](N)c3ccc(O)cc3)C(=O)N2[C@H]1C(=O)O [amoxicillin] + OC(Cn1cncn1)(Cn1cncn1)c1ccc(F)cc1F [fluconazole] |  |  |  | 0.508 | 1.02 | 1.01 | 1.01 | 1.01 | 1.03 | 2.01 | 1.02 | 0.516 | 0.508 | 1.02 | 0.963 | 1.92 | -0.019 | 1.02 | 0.34 | -1.87 | -2.93 | -1.44 | 0.455 | 1.93 | 2.98 | 0.75 | 1.5 | 1.25 | 1.25 | 1.25 | 2 | 2.12 | 2.12 | 1.25 | 1.25 | 2.25 |  |  | 
COc1c(C)c2c(c(O)c1C/C=C(\C)CCC(=O)O)C(=O)OC2 [mycophenolic acid] + CC(=O)N1CCN(c2ccc(OCC3COC(Cn4ccnc4)(c4ccc(Cl)cc4Cl)O3)cc2)CC1 [ketoconazole] | 1.25 | -2.13 | 4.12 |  |  |  |  |  |  |  |  |  |  |  |  |  |  |  |  |  |  |  |  |  |  |  |  |  |  |  |  |  |  |  |  |  |  |  | 
COc1c(C)c2c(c(O)c1C/C=C(\C)CCC(=O)O)C(=O)OC2 [mycophenolic acid] + CCC(C)n1ncn(-c2ccc(N3CCN(c4ccc(OCC5COC(Cn6cncn6)(c6ccc(Cl)cc6Cl)O5)cc4)CC3)cc2)c1=O [itraconazole] |  |  |  | 0.174 | 0.508 | 0.516 | 1.01 | 0.508 | 1.03 | 0.517 | 1.02 |  | 2.01 | 0.508 | 10 | 3.12 | 0.327 | -0.825 | 0.427 | 0.69 | 2.31 | -0.0362 |  | -4.07 | 4.83 | 1.62 | 1.02 | 4.12 | 2.25 | 0.75 | 1.25 | 1.13 | 2.53 |  | 4.25 | 1.25 | 1 | -2.11 | 2.16
COc1c(C)c2c(c(O)c1C/C=C(\C)CCC(=O)O)C(=O)OC2 [mycophenolic acid] + CC[C@@H]([C@H](C)O)n1ncn(-c2ccc(N3CCN(c4ccc(OC[C@@H]5CO[C@@](Cn6cncn6)(c6ccc(F)cc6F)C5)cc4)CC3)cc2)c1=O [posaconazole] | 1.5 | -3.21 | 4.12 |  |  |  |  |  |  |  |  |  |  |  |  |  |  |  |  |  |  |  |  |  |  |  |  |  |  |  |  |  |  |  |  |  |  |  | 
